According to patent US20130065818A1, “Arylamide Compounds And Compositions And Uses Thereof” (POLYMEDIX, priority 2006, published 2013):
In brackets after ≈: the same amount, converted by molar mass. Read-outs that look alike come from different tables or passages of the source.

Tests used:
Type in all cases: cell-based
Streptococcus pneumoniae = test: MIC, 25 ocular isolates, broth microdilution (Example 8)
Protocol: (§1) Mueller-Hinton Broth supplemented with 2% lysed horse blood in tubes was inoculated with 25 ocular isolates of Streptococcus pneumoniae, Streptococcus viridans group, and Moraxella species (including Moraxella catarrhalis) plus two controls (Staphylococcus aureus and E. coli) and incubated at 37° C. overnight. Additionally, Mueller-Hinton Broth in tubes was inoculated with two controls (Staphylococcus aureus and E. coli) and incubated at 37° C. overnight on a shaker set at 250 rpm.
(§2) On the day of testing, a 640 μg/ml (1280 μg/ml for Serratia marcescens and Pseudomonas aeruginosa) concentration was prepared from a 1% stock solution in 0.01% acetic acid, 0.2% BSA in polypropylene tubes.
(§3) Serial doubling dilutions in 0.01% acetic acid, 0.2% BSA in 96 well polypropylene plates, which are used as reservoirs for the inoculation of the test plates, were carried out to obtain serial dilutions of test agents at 10 times the required test concentrations: 640, 320, 160, 80, 40, 20, 10, 5, 2.5, 1.25, and 0.625 μg/ml (1280, 640, 320, 160, 80, 40, 20, 10, 5, 2.5, and 1.25 μg/ml for Serratia marcescens and Pseudomonas aeruginosa).
(§4) Ten μl of diluted 10×test agents was added to each well of one row of the 96 well polypropylene plates from column 2 to column 12 (column 1 is a control for bacteria alone, with no peptide). Test agent concentrations in columns 2-12 were as follows: 64, 32, 16, 8, 4, 2, 1, 0.5, 0.25, 0.125, and 0.0625 μg/ml (128, 64, 32, 16, 8, 4, 2, 1, 0.5, 0.25, and 0.125 μg/ml for Serratia marcescens and Pseudomonas aeruginosa). The same peptide was in each of the 8 rows. One plate contained dilutions of one test agent and 8 bacterial isolates.
(§5) On the day of testing, the overnight bacterial broth cultures of Streptococcus pneumoniae, Streptococcus viridans and Moraxella species (including Moraxella catarrhalis) plus two controls (Staphylococcus aureus and E. coli) were diluted in 5 ml of trypticase soy broth to yield turbidity equal to a 0.5 McFarland standard. The final inoculum for MIC testing for Streptococcus pneumoniae, Streptococcus viridans and Moraxella species (including Moraxella catarrhalis) was achieved by placing 0.1 ml of the turbidity adjusted sample to 5 ml of Mueller-Hinton broth containing 2% lysed horse red blood cells.
(§6) Ninety μl of the bacterial suspensions was dispensed in each well from column 1 to column 12. Each bacterial isolate was placed in one row of a 96 well polypropylene plate containing the test agents. The plates were placed on shaker at 15 minutes at room temperature, and then incubated at 37° C. overnight. MICs were determined visually as the lowest concentration of drug that inhibits visible bacterial growth.

[1] = tested on: Moraxella species (including Moraxella catarrhalis); test: as above
Protocol: as §1, §2, §3, §4, §5, §6

[2] = tested on: Fluoroquinolone-Resistant Methicillin-Resistant Staphylococcus aureus Strain K950; test: MIC characterization of strain K950; settings: read-out: MIC (Minimum Inhibitory Concentration)
[3] = n=25 isolates, >64 replaced with 128

With N=C(N)NCCCCC(=O)Nc1cc(C(F)(F)F)cc(NC(=O)c2cc(C(=O)Nc3cc(C(F)(F)F)cc(NC(=O)CCCCNC(=N)N)c3O[C@@H]3CCNC3)ncn2)c1O[C@@H]1CCNC1 [Oligomer 4] the MIC (Streptococcus pneumoniae; Streptococcus pneumoniae, isolate 13—B1334, read-out: MIC) was 1 µg/mL (≈ 1.07 µM), the MIC (Streptococcus pneumoniae; Streptococcus pneumoniae, isolate 14—B1333, read-out: MIC) was 1 µg/mL (≈ 1.07 µM) and the MIC (Streptococcus pneumoniae; Streptococcus pneumoniae, isolate 15—B1255, read-out: MIC) was 0.5 µg/mL (≈ 0.534 µM). It also gave an MIC (Streptococcus pneumoniae; Streptococcus pneumoniae, isolate 16—B1288, read-out: MIC) of 1 µg/mL (≈ 1.07 µM), an MIC (Streptococcus pneumoniae; Streptococcus pneumoniae, isolate 17—B1287, read-out: MIC) of 1 µg/mL (≈ 1.07 µM) and an MIC (Streptococcus pneumoniae; Streptococcus pneumoniae, isolate 18—B1272, read-out: MIC) of 0.5 µg/mL (≈ 0.534 µM). It also gave an MIC (Streptococcus pneumoniae; Streptococcus pneumoniae, isolate 19—B1264, read-out: MIC) of 0.5 µg/mL (≈ 0.534 µM), an MIC (Streptococcus pneumoniae; Streptococcus pneumoniae, isolate 20—B1252, read-out: MIC) of 1 µg/mL (≈ 1.07 µM) and an MIC (Streptococcus pneumoniae; Streptococcus pneumoniae, isolate 21—B1245, read-out: MIC) of 0.5 µg/mL (≈ 0.534 µM). It also gave an MIC (Streptococcus pneumoniae; Streptococcus pneumoniae, isolate 22—B1211, read-out: MIC) of 1 µg/mL (≈ 1.07 µM), an MIC (Streptococcus pneumoniae; Streptococcus pneumoniae, isolate 23—B1213, read-out: MIC) of 1 µg/mL (≈ 1.07 µM) and an MIC (Streptococcus pneumoniae; Streptococcus pneumoniae, isolate 24—B1208, read-out: MIC) of 0.5 µg/mL (≈ 0.534 µM). It also gave an MIC (Streptococcus pneumoniae; Streptococcus pneumoniae, isolate 25—B1214, read-out: MIC) of 1 µg/mL (≈ 1.07 µM), an MIC (Streptococcus pneumoniae; Streptococcus pneumoniae, n=25 per group, read-out: Median MIC) of 1 µg/mL (≈ 1.07 µM) and an MIC50 (Streptococcus pneumoniae; Streptococcus pneumoniae, 25 isolates, Summary of Results, read-out: MIC50) of 1 µg/mL (≈ 1.07 µM). It also gave an MIC90 (Streptococcus pneumoniae; Streptococcus pneumoniae, 25 isolates, Summary of Results, read-out: MIC90) of 2 µg/mL (≈ 2.13 µM), an MIC (Streptococcus pneumoniae; Streptococcus pneumoniae, 25 isolates, Summary of Results, read-out: Median MIC) of 1 µg/mL (≈ 1.07 µM) and an MIC50 (Streptococcus pneumoniae; n=25 per group) of 1 µg/mL (≈ 1.07 µM). For the same compound, the MIC90 (Streptococcus pneumoniae; n=25 per group) was 2 µg/mL (≈ 2.13 µM), the “Range of MICs” value (Streptococcus pneumoniae; n=25 per group) was 0.5 to 128 µg/mL and the MIC ([1]; Moraxella, 25 ocular isolates, Mueller-Hinton broth with 2% lysed horse red blood cells, read-out: Median MIC) was ≤ 4 µg/mL. For the same compound, the MIC ([1]; Moraxella, isolate 1 K1614 - MS, read-out: MIC) was 16 µg/mL (≈ 17.1 µM), the MIC ([1]; Moraxella, isolate 2 K1661 - MS, read-out: MIC) was 32 µg/mL (≈ 34.2 µM) and the MIC ([1]; Moraxella, isolate 3 K1643 - MS, read-out: MIC) was 64 µg/mL (≈ 68.3 µM). For the same compound, the MIC ([1]; Moraxella, isolate 4 K1640 - MS, read-out: MIC) was 8 µg/mL (≈ 8.54 µM), the MIC ([1]; Moraxella, isolate 5 B1431 - MS, read-out: MIC) was 32 µg/mL (≈ 34.2 µM) and the MIC ([1]; Moraxella, isolate 6 B1429 - MS, read-out: MIC) was 1 µg/mL (≈ 1.07 µM). It also gave an MIC ([1]; Moraxella, isolate 7 B1418 - MS, read-out: MIC) of 32 µg/mL (≈ 34.2 µM), an MIC ([1]; Moraxella, isolate 8 K1784 - MS, read-out: MIC) of 64 µg/mL (≈ 68.3 µM) and an MIC ([1]; Moraxella, isolate 9 K1773 - MS, read-out: MIC) of 64 µg/mL (≈ 68.3 µM). For the same compound, the MIC ([1]; Moraxella, isolate 10 K1369 - MS, read-out: MIC) was 2 µg/mL (≈ 2.13 µM), the MIC ([1]; Moraxella, isolate 11 B1275 - MS, read-out: MIC) was 2 µg/mL (≈ 2.13 µM) and the MIC ([1]; Moraxella, isolate 12 B1221 - MS, read-out: MIC) was 2 µg/mL (≈ 2.13 µM). The MIC ([1]; Moraxella, isolate 13 B1172 - MS, read-out: MIC) was > 64 µg/mL, the MIC ([1]; Moraxella, isolate 14 E542 - MS, read-out: MIC) was 2 µg/mL (≈ 2.13 µM) and the MIC ([1]; Moraxella, isolate 15 K678 - MS, read-out: MIC) was 2 µg/mL (≈ 2.13 µM). It also gave an MIC ([1]; Moraxella, isolate 16 K660 - MS, read-out: MIC) of 2 µg/mL (≈ 2.13 µM), an MIC ([1]; Moraxella, isolate 17 K599 - MC, read-out: MIC) of 0.5 µg/mL (≈ 0.534 µM) and an MIC ([1]; Moraxella, isolate 18 K1650 - MC, read-out: MIC) of 64 µg/mL (≈ 68.3 µM). It also gave an MIC ([1]; Moraxella, isolate 19 K1373 - MC, read-out: MIC) of 1 µg/mL (≈ 1.07 µM), an MIC ([1]; Moraxella, isolate 20 K1553 - MC, read-out: MIC) of 4 µg/mL (≈ 4.27 µM) and an MIC ([1]; Moraxella, isolate 21 K1453 - MC, read-out: MIC) of 4 µg/mL (≈ 4.27 µM). For the same compound, the MIC ([1]; Moraxella, isolate 22 K1227 - MC, read-out: MIC) was 2 µg/mL (≈ 2.13 µM), the MIC ([1]; Moraxella, isolate 23 B1102 - MC, read-out: MIC) was 1 µg/mL (≈ 1.07 µM) and the MIC ([1]; Moraxella, isolate 24 K1819 - MC, read-out: MIC) was 4 µg/mL (≈ 4.27 µM). It also gave an MIC ([1]; Moraxella, isolate 25 K1855 - MC, read-out: MIC) of 2 µg/mL (≈ 2.13 µM), an MIC50 ([1]; Moraxella, n=25 isolates, >64 replaced with 128, read-out: MIC50) of 4 µg/mL (≈ 4.27 µM) and an MIC90 ([1]; Moraxella, n=25 isolates, >64 replaced with 128, read-out: MIC90) of 64 µg/mL (≈ 68.3 µM). It also gave an MIC ([1]; Moraxella, n=25 isolates, >64 replaced with 128, read-out: Median MIC) of 4 µg/mL (≈ 4.27 µM), an MIC50 [1, 3] of 4 µg/mL (≈ 4.27 µM) and an MIC90 [1, 3] of 64 µg/mL (≈ 68.3 µM). The “Range of MICs” value [1, 3] was 0.5 to 128 µg/mL and the MIC [2] was 0.5 µg/mL (≈ 0.534 µM).
